Patent publication US20060160818A1, “Ocular hypotensive agent” (priority 2003, published 2006)
Counter-ions that a name gives are not always drawn.

System: ocular tension
Assay: Ocular tension-reducing activity by administration to anterior chamber
Assay type: in vivo, rabbit
Conditions: overall conclusion from Examples 1 to 4
Procedure: Test solutions 1 to 3 were prepared as mentioned below. […] Non-white 5 male rabbits were used. Ocular tension was measured under topically anesthetizing the corneal surface with 0.4% oxybuprocaine hydrochloride by using an air impression electronic tonometer (by Japan Alcon Company). The rabbit was fitted in a cylinder, after topically anesthetizing the corneal surface with 0.4% oxybuprocaine hydrochloride, and the test solution 10 μl was injected via cornea in anterior chamber of one eye with an injection needle (30G). To the other eye as a control eye, in the same way as mentioned above, a physiological saline was injected. Ocular tension just before and after injection of the test solution or the physiological saline was measured in accordance with the same method as mentioned above. […] Ocular tension just before and after injection of the test solution and the physiological saline was measured in accordance with the same method as mentioned in Example 1.

| SMILES | ocular tension-reducing activity (summary in words) |
| --- | --- |
| O=C1[C@H]2CCCC[C@H]2C(=O)N1CCCCN1CCN(c2nsc3ccccc23)CC1 [perospirone hydrochloride hydrate] | have ocular tension-reducing activity |
| O=C(O)CC(O)(CC(=O)O)C(=O)O.O=C1[C@@H]2[C@@H]3CC[C@@H](C3)[C@@H]2C(=O)N1CCCCN1CCN(c2ncccn2)CC1 [tandospirone citrate] | have ocular tension-reducing activity |
